49 compounds from patent US7816371B2, “Bicycloheteroaryl compounds as P2X7 modulators and uses thereof” (Renovis, Inc., priority 2006, dated 2010) can be followed below.

The target in the experiment is T1, P2X7 receptor (Homo sapiens, UniProt Q99572).
T1 construct: host or cells: THP-1 cells differentiated with LPS and IFN-γ
T1 sequence (Q99572 1-595): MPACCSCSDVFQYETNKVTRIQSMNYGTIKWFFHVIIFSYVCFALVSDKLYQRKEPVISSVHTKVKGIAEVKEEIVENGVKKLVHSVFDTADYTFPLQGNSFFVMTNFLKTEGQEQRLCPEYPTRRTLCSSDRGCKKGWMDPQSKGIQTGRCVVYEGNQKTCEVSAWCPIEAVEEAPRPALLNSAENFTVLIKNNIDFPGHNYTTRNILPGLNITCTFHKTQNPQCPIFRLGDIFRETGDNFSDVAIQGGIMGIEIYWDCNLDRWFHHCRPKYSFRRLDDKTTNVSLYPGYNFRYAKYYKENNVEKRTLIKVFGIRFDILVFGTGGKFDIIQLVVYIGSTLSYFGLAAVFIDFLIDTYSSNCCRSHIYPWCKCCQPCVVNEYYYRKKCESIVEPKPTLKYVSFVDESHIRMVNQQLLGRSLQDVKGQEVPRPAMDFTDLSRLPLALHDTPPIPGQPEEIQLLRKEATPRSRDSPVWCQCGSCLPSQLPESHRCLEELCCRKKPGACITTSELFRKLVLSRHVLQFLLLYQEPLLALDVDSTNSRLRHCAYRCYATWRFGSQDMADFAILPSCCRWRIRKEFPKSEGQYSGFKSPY
The experiment can be described thus: IL-1β release assay in differentiated THP-1 cells stimulated with BzATP (Example 9); % inhibition and IC50. Type of experiment: cell-based. The following applies: THP-1 cells differentiated with LPS and IFN-γ, 30 min pretreatment, BzATP 250 uM, IL-1β by ELISA. How it is done: The cells are then pretreated for 30 minutes with the compound of interest at the appropriate concentration in RPMI media containing 100 IU/mL penicillin, 100 ug/mL streptomycin. […] 30 uL of cell supernatant is then collected and IL-1β levels determined via ELISA (R&D systems Cat. # HSLB50) according to manufacturer's recommendations using the Tecan Safire plate reader. Background adjusted IL-1β levels of drug treated and non-treated cells are used to calculate the percent inhibition.
The compounds set forth in Table 1 were tested for activity in a cellular model as described herein.

On to `C[C@H](C(N)=O)n1ccc2c(NC(=O)Cc3ccc(Cl)c(C(F)(F)F)c3)cccc2c1=O` [Compound 238, (R)-2-{5-[2-(4-Chloro-3-trifluoromethyl-phenyl)-acetylamino]-1-oxo-1H-isoquinolin-2-yl}-propionamide], for which the IC50 worked out at 1.26 nM.
For `CS(=O)(=O)c1ccc(CC(=O)Nc2cccc3c(=O)n(CCO)ccc23)cc1` [Compound 72] the value was above 1000 nM; for `CC(C)[C@H](C(=O)NC1CC1)n1ccc2c(NC(=O)[C@@H](C)c3ccc(Cl)cc3)cccc2c1=O` [Compound 281, (R)-2-{5-[(S)-2-(4-Chloro-phenyl)-propionylamino]-1-oxo-1H-isoquinolin-2-yl}-N-cyclopropyl-3-methyl-butyramide], 7.39 nM; for `C[C@H](C(N)=O)n1ccc2c(NC(=O)Cc3ccc(C(F)(F)F)cc3)cccc2c1=O` [Compound 298], 7.91 nM.
To `CC(C(=O)Nc1cccc2c(=O)n([C@@H](C)C(N)=O)ccc12)c1ccc(Cl)c(C(F)(F)F)c1` (stereo partly shown) [Compound 356] belongs 15.5 nM; to `CNC(=O)[C@@H](C(C)C)n1ccc2c(NC(=O)[C@H](C)c3ccc(Cl)cc3)cccc2c1=O` [Compound 277], 82 nM.
As for `C[C@H](C(N)=O)n1ccc2c(NC(=O)Cc3cccc(Cl)c3)cccc2c1=O` [Compound 255], the IC50 worked out at 21.6 nM.
For `CC(C(=O)Nc1cccc2c(=O)n([C@H](C)C(N)=O)ccc12)c1ccc(F)cc1` (stereo partly shown) [Compound 299] the value was 24.8 nM; for `C[C@H](C(N)=O)n1ccc2c(NC(=O)Cc3c(F)cccc3C(F)(F)F)cccc2c1=O` [Compound 286], 374 nM; for `C[C@H](C(N)=O)n1ccc2c(NC(=O)Cc3ccc(F)c(Cl)c3)cccc2c1=O` [Compound 301], 3.57 nM.
For `C[C@H](CO)n1ccc2c(NC(=O)Cc3cccc(C(F)(F)F)c3F)cccc2c1=O` [Compound 324] the value was 22.1 nM; for `O=C(Cc1ccc(Cl)c(Cl)c1)Nc1cccc2c(=O)n(CCO)ccc12` [Compound 8], 30.3 nM; for `C[C@H](CO)n1ccc2c(NC(=O)Cc3ccc(F)c(C(F)(F)F)c3)c(Cl)ccc2c1=O` [Compound 377, N-[6-Chloro-2-((R)-2-hydroxy-1-methyl-ethyl)-1-oxo-1,2-dihydro-isoquinolin-5-yl]-2-(4-fluoro-3-trifluoromethyl-phenyl)-acetamide], 0.38 nM.
To `C[C@@H](CO)n1ccc2c(NC(=O)Cc3ccc(F)c(C(F)(F)F)c3)cccc2c1=O` [Compound 338] belongs 48.1 nM; to `COc1ccc(CC(=O)Nc2cccc3c(=O)n(CCO)ccc23)cc1` [Compound 2], above 1000 nM; to `C[C@H](CO)n1ccc2c(NC(=O)Cc3ccc(C(F)(F)F)c(F)c3)c(Cl)ccc2c1=O` [Compound 375, N-[6-Chloro-2-((R)-2-hydroxy-1-methyl-ethyl)-1-oxo-1,2-dihydro-isoquinolin-5-yl]-2-(3-fluoro-4-trifluoromethyl-phenyl)-acetamide], 4.65 nM.
Consider `C[C@H](C(=O)Nc1cccc2c(=O)n([C@H](C)CO)ccc12)c1ccc(Cl)c(Cl)c1` [Compound 321], for which the IC50 was determined as 13.4 nM.
As for `C[C@H](C(=O)Nc1cccc2c(=O)n([C@H](C)C(N)=O)ccc12)c1ccc(Cl)c(Cl)c1` [Compound 268], the IC50 was 3.92 nM.
As to `CC(C(=O)Nc1cccc2c(=O)n([C@H](C)C(N)=O)ccc12)c1cccc(C(F)(F)F)c1F` (stereo partly shown) [Compound 337], the IC50 turned out to be 9.15 nM.
For `Cc1ccc(CC(=O)Nc2cccc3c(=O)n([C@H](C)C(N)=O)ccc23)cc1F` [Compound 302], the IC50 amounted to 32.2 nM.
With `C[C@@H](C(N)=O)n1ccc2c(NC(=O)Cc3ccc(Cl)c(Cl)c3)cccc2c1=O` [Compound 236, (S)-2-{5-[2-(3,4-Dichloro-phenyl)-acetylamino]-1-oxo-1H-isoquinolin-2-yl}-propionamide], the half-inhibitory concentration (IC50) worked out at 46.6 nM.
To `C[C@H](C(N)=O)n1ccc2c(NC(=O)Cc3ccc(Cl)cc3F)c(Cl)ccc2c1=O` [Compound 343] belongs 395 nM.
For `COc1ccc(C(=O)Nc2cccc3c(=O)n(C(CO)CO)ccc23)c(OC)c1` [Compound 5], the IC50 is above 1000 nM.
For `C[C@H](C(N)=O)n1ccc2c(NC(=O)Cc3c(F)cccc3F)cccc2c1=O` [Compound 292] the value was above 1000 nM.
To `CNC(=O)[C@@H](CO)n1ccc2c(NC(=O)C(C)c3ccc(Cl)cc3)cccc2c1=O` (stereo partly shown) [Compound 261] belongs 188 nM; to `CC(C)[C@H](C(N)=O)n1ccc2c(NC(=O)[C@@H](C)c3ccc(Cl)cc3)cccc2c1=O` [Compound 283], 9.7 nM; to `C[C@H](C(=O)Nc1cccc2c(=O)n([C@@H](C)C(N)=O)ccc12)c1ccc(Cl)cc1` [Compound 265], 15.2 nM.
To `CC(C(=O)Nc1cccc2c(=O)n([C@H](C)C(N)=O)ccc12)c1ccc(Cl)c(C(F)(F)F)c1` (stereo partly drawn) [Compound 267, (R)-2-{5-[2-(4-Chloro-3-trifluoromethyl-phenyl)-propionylamino]-1-oxo-1H-isoquinolin-2-yl}-propionamide] belongs 3.19 nM; to `C[C@@H](C(N)=O)n1ccc2c(NC(=O)Cc3ccc(F)c(C(F)(F)F)c3)cccc2c1=O` [Compound 348], 20.8 nM.
On to `C[C@@H](C(N)=O)n1ccc2c(NC(=O)Cc3ccc(C(F)(F)F)c(F)c3)cccc2c1=O` [Compound 347], for which the concentration for half-maximal inhibition (IC50) is 31.2 nM.
For `NC(=O)[C@H](CO)n1ccc2c(NC(=O)Cc3ccc(Cl)c(Cl)c3)cccc2c1=O` [Compound 253] the value was 763 nM.
For `C[C@H](C(=O)Nc1cccc2c(=O)n(C(C(N)=O)c3ccc(Cl)cc3)ccc12)c1ccc(Cl)cc1` (stereo partly drawn) [Compound 315, (S)—N-{2-[Carbamoyl-(4-chloro-phenyl)-methyl]-1-oxo-1,2-dihydro-isoquinolin-5-yl}-2-(4-chloro-phenyl)-propionamide], the IC50 was 221 nM.
For `C[C@@H](CO)n1ccc2c(NC(=O)Cc3ccc(C(F)(F)F)c(F)c3)cccc2c1=O` [Compound 336] the value was 49.8 nM; for `CC(C(=O)Nc1cccc2c(=O)n(C(CO)CO)ccc12)c1ccc(Cl)cc1` (stereo not shown) [Compound 231], 374 nM.
`C[C@H](C(N)=O)n1ccc2c(NC(=O)Cc3ccc(F)cc3C(F)(F)F)cccc2c1=O` [Compound 295]: the 50% inhibitory concentration (IC50) came to 184 nM.
For `CC(C)[C@H](C(N)=O)n1ccc2c(NC(=O)[C@H](C)c3ccc(Cl)cc3)cccc2c1=O` [Compound 284, (R)-2-{5-[(R)-2-(4-Chloro-phenyl)-propionylamino]-1-oxo-1H-isoquinolin-2-yl}-3-methyl-butyramide] the value was 6.91 nM; for `O=C(Cc1ccc(Cl)c(C(F)(F)F)c1)Nc1cccc2c(=O)n(C(CO)CO)ccc12` [Compound 81, 2-(4-Chloro-3-trifluoromethyl-phenyl)-N-[2-(2-hydroxy-1-hydroxymethyl-ethyl)-1-oxo-1,2-dihydro-isoquinolin-5-yl]-acetamide], 27.8 nM.
To `C[C@H](C(N)=O)n1ccc2c(NC(=O)Cc3ccc(F)c(F)c3F)cccc2c1=O` [Compound 379] belongs 30.4 nM; to `O=C(Cc1ccc(Cl)cc1Cl)Nc1cccc2c(=O)n(CCO)ccc12` [Compound 69], 10.8 nM; to `C[C@H](CO)n1ccc2c(NC(=O)Cc3ccc(Cl)c(C(F)(F)F)c3)cccc2c1=O` [Compound 362], 1.14 nM.
`O=C(Cc1cccc(C(F)(F)F)c1F)Nc1c(NCCO)ccc2c(=O)n(CCO)ccc12` [Compound 385, 2-(2-Fluoro-3-trifluoromethyl-phenyl)-N-[2-(2-hydroxy-ethyl)-6-(2-hydroxy-ethylamino)-1-oxo-1,2-dihydro-isoquinolin-5-yl]-acetamide]: the half-maximal inhibitory concentration (IC50) was above 1000 nM.
For `C[C@H](C(N)=O)n1ccc2c(NC(=O)Cc3ccc(F)c(Br)c3)cccc2c1=O` [Compound 307] the value was 18.5 nM; for `CC(C)(CO)n1ccc2c(NC(=O)Cc3ccc(Cl)c(F)c3)cccc2c1=O` [Compound 373], 258 nM; for `C[C@H](CO)n1ccc2c(NC(=O)Cc3ccc(F)c(C(F)(F)F)c3)cccc2c1=O` [Compound 339], 10.5 nM.
Turning to `CC(C)C[C@H](CO)n1ccc2c(NC(=O)[C@@H](C)c3ccc(Cl)cc3)cccc2c1=O` [Compound 271], the half-inhibitory concentration (IC50) was determined as 60.6 nM.
As to `C[C@H](CO)n1ccc2c(NC(=O)[C@H](C)c3ccc(Cl)c(Cl)c3)cccc2c1=O` [Compound 320], the half-maximal inhibitory concentration (IC50) is 9.54 nM.
Turning to `C[C@H](C(N)=O)n1ccc2c(NC(=O)Cc3ccc(C#N)cc3)cccc2c1=O` [Compound 287], the IC50 came out at 332 nM.
To `CC(C)(CO)n1ccc2c(NC(=O)Cc3ccc(Cl)c(Cl)c3)cccc2c1=O` [Compound 371] belongs 157 nM.
To `CC(C)(CO)n1ccc2c(NC(=O)Cc3cccc(C(F)(F)F)c3F)cccc2c1=O` [Compound 368] belongs 60.3 nM.

Usually IC50 stands for the concentration needed to halve the response being measured.
